According to patent publication US10920265B2, “Compounds and methods for detection of enzymes that remove methyl succinyl groups from epsilon-amino lysine moieties” (Enzo Life Sciences, Inc., priority 2011, dated 2021):
*: point of attachment. AMC = Cc1cc(=O)oc2cc(N*)ccc12

Experiments:
[1] = system: HeLa cell extracts; experiment: HeLa cell extract Ac-Lys(ε-succinyl)-AMC desuccinylation activity; format: biochemical, human; conditions: 50 μM Ac-Lys(Succ.)-AMC, +NAD^+ 500 μM; TSA 1 μM, suramin 200 μM
Method: (§1) Enzyme and extract catalog products obtained from ENZO Life Sciences included: HDAC1 (Cat. # BML-SE456), HDAC2 (Cat. # BML-SE500), HDAC3 (Cat. # BML-SE507), HDAC3/NCOR1 Complex (Cat. # BML-SE515), HDAC6 (Cat. # BML-SE508), HDAC8 (Cat. # BML-SE145), HDAC10 (Cat. # BML-SE559), HDAC11 (Cat. # BML-SE560), SIRT1 (Cat. # BML-SE239), SIRT2 (Cat. # BML-SE251), SIRT3 (Cat. # BML-SE270), SIRT5 (Cat. # BML-SE555), HeLa Nuclear Extract (Cat. # BML-KI140), Trypsin (“Fluor de Lys Developer”, 80 mg/ml bovine trypsin in 1 mM HCl, Cat. # BML-KI105 or “Fluor de Lys Developer II”, 80 mg/ml bovine trypsin in 1 mM HCl, Cat. # BML-KI176). […] Enzymes obtained from BPS Bioscience, San Diego, Calif. included: human recombinants SIRT4 (Cat. #50015), SIRT6 (Cat. #50017), SIRT7 (Cat. #50018). HeLa whole cell extract was obtained from HeLa S3 cells (American Type Culture Collection) grown in a medium of MEM/10% fetal bovine serum (FBS) as follows: 1) 9×10^6 cells were suspended by trypsinization, followed by a phosphate buffered saline (PBS) rinse and addition of MEM/10% FBS (1.5 mL) to eliminate trypsin before transfer to a 15 mL conical tube; 2) cells were sedimented by a low speed centrifugation, gently resuspended in PBS and sedimented again and supernatant removed; 3) lysis was induced by resuspension in 0.8 mL 50 mM Tris/HCl, pH 8.0 with the non-denaturing detergent NP-40 (0.5%), placement on ice and brief vortexing every 5 min. for 30 min.; 4) 100 μl of a concentrated salt solution in the same buffer was added in order to bring the final buffer composition to 50 mM Tris/C1, pH 8.0, 137 mM NaCl, 2.7 mM KCl, 1 mM MgCl2, 0.5% NP-40; 5) particulate matter was cleared by centrifugation and the cleared lysate supernatant transferred to a 1.5 mL Eppendorf tube and stored on ice until use in activity assays.
Assays were performed at 37° C., according to the manufacturer's instructions for the “SIRT1 Fluorometric Drug Discovery Kit” from Enzo Life Sciences (ELS) (Cat. # BML-AK555), with exceptions described as follows. […]

[2] = biological target: T1, SIRT5 (Homo sapiens, UniProt Q9NXA8); experiment: Inhibition of SIRT5 desuccinylation of Ac-Lys(Succ.)-AMC; format: biochemical; parameters: purchased Enzo Life Sciences BML-SE555; conditions: three parameter Hill-Slope model, bottom fixed at 0
T1 sequence (Q9NXA8 37-310): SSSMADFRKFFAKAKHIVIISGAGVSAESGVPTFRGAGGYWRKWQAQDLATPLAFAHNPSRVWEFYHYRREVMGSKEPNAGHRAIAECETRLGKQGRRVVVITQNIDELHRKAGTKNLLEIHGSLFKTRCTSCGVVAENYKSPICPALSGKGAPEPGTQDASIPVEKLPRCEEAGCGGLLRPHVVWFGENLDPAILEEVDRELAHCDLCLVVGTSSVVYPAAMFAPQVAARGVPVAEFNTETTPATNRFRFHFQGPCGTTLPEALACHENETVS
Source text: Signal development (trypsin treatment) and fluorescence readings were done as described, as were the conversion of fluorescence increases to rates in units of pmol/min/μg (FIG. 5). Data points represent the mean of three determinations and the error bars are the standard deviations from those means. The dose-response curve was derived from a least-squares fit to a three parameter Hill-Slope model (bottom fixed at 0 pmol/min/μg), y=top/(1+(x/IC50)^slope).
Data points represent the mean of three determinations and the error bars are the standard deviations from those means. The dose-response curve was derived from a least-squares fit to a three parameter Hill-Slope model (bottom fixed at 0 pmol/min/μg), y=top/(1+(x/IC50)^slope).
(§2) Assays were performed at 37° C., according to the manufacturer's instructions for the “SIRT1 Fluorometric Drug Discovery Kit” from Enzo Life Sciences (ELS) (Cat. # BML-AK555), with exceptions described as follows. Where indicated in figures and text, SIRT1 enzyme was replaced with another enzyme or extract and the “Fluor de Lys-SIRT1 Substrate” (Ac-Arg-His-Lys-Lys(Ac)-AMC; ELS Cat. # BML-KI-177) was replaced with another acetylated, succinylated or trifluoroacetylated substrate.

[3] = system: HeLa cells; experiment: Intact HeLa cell desuccinylation/deacetylation assay; format: cell-based, human; conditions: 200 μM Ac-Lys(Ac.)-AMC, four hours, TSA 1 μM
Method: HeLa cells were cultured to 95% confluence in the wells of ½-volume 96-well plates. […] After the indicated time, cells were lysed with detergent and trypsin added to release AMC from desuccinylated or deacetylated substrate and then fluorescence read (Ex.360 nm/Em. 460 nm). For “0 hr.” samples, substrate, inhibitors, lysis buffer and trypsin were added simultaneously. Bars represent the mean of three determinations and the error bars the Standard Deviation from that mean. Statistically significant differences between the fluorescences of “4 hr.” and “0 hr.” samples (Student's t-test) are indicated by asterisks as follows: *,p<0.02; **, p<0.002.
An assay employing Ac-Lys(Ac.)-AMC to measure the HDAC and sirtuin deacetylase activity of intact cultured cells has been described (Howitz, K. T. et al. Nature 425, 191-196 (2003); Product Manual of Enzo Life Sciences Cat. # BML-AK-503, “HDAC Fluorimetric Cellular Activity Assay Kit”, Appendix F). Ac-Lys(Ac)-AMC is added to the culture medium, enters the cells and is deacetylated by HDACs and sirtuins in their native intracellular context. Measurement of the amount of Ac-Lys-AMC produced by intracellular deacetylation is then accomplished by detergent lysis of the cells and release of the AMC fluorophore by trypsin. We therefore investigated whether Ac-Lys(Succ.)-AMC could be used to measure intracellular desuccinylation activity, in a similar fashion, with cultured HeLa cells. […] These latter, deacetylation results are consistent with previous observations made with this assay system (see Howitz, K. T. et al. Nature 425, 191-196 (2003) and Appendix F).
Assays (FIG. 10) were performed according to the manufacturer's instructions for the ““HDAC Fluorometric Cellular Activity Assay Kit” (ELS Cat. # BML-AK503), with exceptions described as follows. Where indicated the “Fluor de Lys Substrate” (Ac-Lys(Ac.)-AMC; ELS Cat. # BML-KI104) was replaced with Ac-Lys(Succ.)-AMC (1).

[4] = biological target: T2, SIRT2 (Homo sapiens, UniProt Q8IXJ6); experiment: Sirtuin activity with fluorogenic lysyl substrates; format: biochemical; conditions: 50 μM substrate, 500 μM NAD^+
T2 sequence (Q8IXJ6 1-389): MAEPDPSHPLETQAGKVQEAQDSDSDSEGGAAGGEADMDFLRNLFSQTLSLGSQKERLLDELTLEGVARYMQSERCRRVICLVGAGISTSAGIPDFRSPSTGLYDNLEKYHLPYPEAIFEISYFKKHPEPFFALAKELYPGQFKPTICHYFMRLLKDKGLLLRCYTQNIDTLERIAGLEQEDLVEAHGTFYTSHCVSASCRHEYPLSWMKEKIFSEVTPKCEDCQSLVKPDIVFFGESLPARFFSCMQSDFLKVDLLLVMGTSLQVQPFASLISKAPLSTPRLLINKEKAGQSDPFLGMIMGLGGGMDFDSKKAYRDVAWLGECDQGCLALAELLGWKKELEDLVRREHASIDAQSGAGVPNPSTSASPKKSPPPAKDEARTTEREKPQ
Method: (§3) The Ac-Lys(Succ.)-AMC substrate was tested for activity with recombinant preparations of human HDACs 1-11, SIRTs 1-4, 6 and 7, a complex of HDAC3 with a fragment of the activating protein NCOR1 and with HeLa nuclear extract, a rich source of active HDACs in their native multiprotein complexes.
as §1, §2

[5] = biological target: T3, SIRT3 (Homo sapiens, UniProt Q9NTG7); experiment: Sirtuin activity with fluorogenic lysyl substrates; format: biochemical; conditions: 50 μM substrate, 500 μM NAD^+
T3 construct: purchased ENZO Life Sciences BML-SE270
T3 sequence (Q9NTG7 1-399): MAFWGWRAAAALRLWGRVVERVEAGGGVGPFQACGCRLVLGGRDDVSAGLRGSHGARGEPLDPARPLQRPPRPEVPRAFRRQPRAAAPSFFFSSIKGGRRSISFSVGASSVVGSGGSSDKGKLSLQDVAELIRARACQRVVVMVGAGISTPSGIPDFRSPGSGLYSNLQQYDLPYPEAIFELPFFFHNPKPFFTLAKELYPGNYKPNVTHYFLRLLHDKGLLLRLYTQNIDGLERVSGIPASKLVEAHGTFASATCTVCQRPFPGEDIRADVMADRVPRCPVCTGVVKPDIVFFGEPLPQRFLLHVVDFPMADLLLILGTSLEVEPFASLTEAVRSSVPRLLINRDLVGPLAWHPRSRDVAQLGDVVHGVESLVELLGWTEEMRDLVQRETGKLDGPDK
Method: as §3, §1, §2

[6] = system: HDAC4; experiment: HDAC activity with fluorogenic lysyl substrates; format: biochemical, human; conditions: 50 μM substrate
Sequence of HDAC4 (P56524 626-1084 limits assumed): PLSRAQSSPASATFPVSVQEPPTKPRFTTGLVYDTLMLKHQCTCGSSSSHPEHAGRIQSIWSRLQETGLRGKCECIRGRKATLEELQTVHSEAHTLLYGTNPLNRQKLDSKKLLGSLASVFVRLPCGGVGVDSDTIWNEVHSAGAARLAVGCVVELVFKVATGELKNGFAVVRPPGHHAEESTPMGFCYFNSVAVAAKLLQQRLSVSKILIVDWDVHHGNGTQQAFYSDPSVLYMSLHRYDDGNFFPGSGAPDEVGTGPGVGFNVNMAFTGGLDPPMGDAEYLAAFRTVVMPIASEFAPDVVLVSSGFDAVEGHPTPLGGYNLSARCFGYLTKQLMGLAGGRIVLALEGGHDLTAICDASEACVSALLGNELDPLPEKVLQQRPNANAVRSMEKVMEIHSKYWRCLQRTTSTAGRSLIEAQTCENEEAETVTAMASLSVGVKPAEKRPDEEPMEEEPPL
Method: as §3
Enzyme and extract catalog products obtained from ENZO Life Sciences included: HDAC1 (Cat. # BML-SE456), HDAC2 (Cat. # BML-SE500), HDAC3 (Cat. # BML-SE507), HDAC3/NCOR1 Complex (Cat. # BML-SE515), HDAC6 (Cat. # BML-SE508), HDAC8 (Cat. # BML-SE145), HDAC10 (Cat. # BML-SE559), HDAC11 (Cat. # BML-SE560), SIRT1 (Cat. # BML-SE239), SIRT2 (Cat. # BML-SE251), SIRT3 (Cat. # BML-SE270), SIRT5 (Cat. # BML-SE555), HeLa Nuclear Extract (Cat. # BML-KI140), Trypsin (“Fluor de Lys Developer”, 80 mg/ml bovine trypsin in 1 mM HCl, Cat. # BML-KI105 or “Fluor de Lys Developer II”, 80 mg/ml bovine trypsin in 1 mM HCl, Cat. # BML-KI176). […] Enzymes obtained from BPS Bioscience, San Diego, Calif. included: human recombinants SIRT4 (Cat. #50015), SIRT6 (Cat. #50017), SIRT7 (Cat. #50018). […]

[7] = biological target: T4, HDAC7 (Homo sapiens, UniProt Q8WUI4); experiment: HDAC activity with fluorogenic lysyl substrates; format: biochemical; conditions: 50 μM substrate
T4 construct: made in house; host or cells: E. coli
T4 sequence (Q8WUI4 483-903): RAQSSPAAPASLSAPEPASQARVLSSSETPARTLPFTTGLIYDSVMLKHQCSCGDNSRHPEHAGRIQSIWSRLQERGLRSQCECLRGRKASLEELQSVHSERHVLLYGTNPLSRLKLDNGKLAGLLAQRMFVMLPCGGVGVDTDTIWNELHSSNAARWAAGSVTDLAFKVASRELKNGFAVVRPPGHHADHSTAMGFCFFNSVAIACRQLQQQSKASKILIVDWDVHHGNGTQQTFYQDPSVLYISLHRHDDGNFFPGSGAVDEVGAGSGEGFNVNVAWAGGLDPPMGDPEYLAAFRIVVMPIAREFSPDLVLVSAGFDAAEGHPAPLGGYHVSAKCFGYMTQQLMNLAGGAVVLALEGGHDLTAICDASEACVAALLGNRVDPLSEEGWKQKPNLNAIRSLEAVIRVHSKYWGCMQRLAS
Method: as §3, §1, §2

[8] = biological target: T5, HDAC9 (Homo sapiens, UniProt Q9UKV0); experiment: HDAC activity with fluorogenic lysyl substrates; format: biochemical; conditions: 50 μM substrate
T5 construct: made in house; host or cells: E. coli
T5 sequence (Q9UKV0 644-1066 isoform Q9UKV0-5): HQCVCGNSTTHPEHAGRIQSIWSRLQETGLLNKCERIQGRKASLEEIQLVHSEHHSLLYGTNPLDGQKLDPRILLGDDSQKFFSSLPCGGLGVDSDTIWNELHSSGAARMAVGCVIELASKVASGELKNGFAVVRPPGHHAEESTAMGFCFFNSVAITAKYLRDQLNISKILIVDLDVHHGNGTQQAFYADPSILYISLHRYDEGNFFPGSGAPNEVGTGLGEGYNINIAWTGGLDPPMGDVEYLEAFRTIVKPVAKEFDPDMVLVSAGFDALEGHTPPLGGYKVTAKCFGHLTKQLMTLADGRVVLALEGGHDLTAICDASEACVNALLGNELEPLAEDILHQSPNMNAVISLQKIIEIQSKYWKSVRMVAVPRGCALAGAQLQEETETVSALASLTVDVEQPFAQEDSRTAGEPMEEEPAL
Method: as §3, §1, §2

[9] = biological target: T6, HDAC5 (Homo sapiens, UniProt Q9UQL6); experiment: HDAC activity with fluorogenic lysyl substrates; format: biochemical; conditions: 50 μM substrate
T6 construct: made in house; host or cells: E. coli
T6 sequence (Q9UQL6 656-1122): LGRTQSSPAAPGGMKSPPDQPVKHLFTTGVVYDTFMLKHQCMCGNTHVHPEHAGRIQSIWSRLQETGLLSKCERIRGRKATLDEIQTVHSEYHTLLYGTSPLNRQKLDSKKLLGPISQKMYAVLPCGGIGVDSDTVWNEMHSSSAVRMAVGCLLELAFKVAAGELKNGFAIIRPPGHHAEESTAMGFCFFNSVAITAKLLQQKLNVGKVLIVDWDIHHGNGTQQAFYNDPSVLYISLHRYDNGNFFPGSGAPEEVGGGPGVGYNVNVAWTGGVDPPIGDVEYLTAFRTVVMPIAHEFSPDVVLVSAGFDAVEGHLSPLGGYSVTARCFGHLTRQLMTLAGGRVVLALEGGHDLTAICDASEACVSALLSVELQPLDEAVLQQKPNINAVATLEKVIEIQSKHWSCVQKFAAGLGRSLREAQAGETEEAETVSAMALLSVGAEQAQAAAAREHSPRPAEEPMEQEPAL
Method: as §3, §1, §2

[10] = biological target: T2, SIRT2; conditions: varied Lysyl, cited from earlier work

Cc1ccc(C(=O)Nc2ccc(S(=O)(=O)O)c3cc(S(=O)(=O)O)cc(S(=O)(=O)O)c23)cc1NC(=O)c1cccc(NC(=O)Nc2cccc(C(=O)Nc3cc(C(=O)Nc4ccc(S(=O)(=O)O)c5cc(S(=O)(=O)O)cc(S(=O)(=O)O)c45)ccc3C)c2)c1 [suramin]
Inhibition of the total 2 hr. fluorescence increase [1]: ~50% | slope (fitted parameter of dose-response curve) [2]: 2.37 | top (fitted parameter of dose-response curve) [2]: 127 pmol/min/µg

CC(/C=C/C(=O)NO)=C\[C@@H](C)C(=O)c1ccc(N(C)C)cc1 [trichostatin A]
Inhibition of the total 2 hr. fluorescence increase [1]: ~50% | Fraction of deacetylation sensitive to inhibitor [3]: > 90%

Ac-Gln-Pro-Lys-Lys(Ac)-AMC (Ac-QPKK(Ac)-{AMC}; SMILES CC(=O)NCCCC[C@H](NC(=O)[C@H](CCCCN)NC(=O)[C@@H]1CCCN1C(=O)[C@H](CCC(N)=O)NC(C)=O)C(=O)Nc1ccc2c(C)cc(=O)oc2c1) [Ac-QPKK(Ac)-AMC, reference compound]
Activity (pmol/min/μg) [4]: Ac-QPKK(Ac)-AMC/18.6 pmol/min/μg | Activity (pmol/min/μg) [5]: Ac-QPKK(Ac)-AMC/10.8 pmol/min/μg

Ac-Leu-Gly-Lys(TFAc)-AMC [Ac-LGK(TFAc)-AMC, reference compound]
Activity (pmol/min/μg) [6]: Ac-LGK(TFAc)-AMC/1390 pmol/min/μg | Activity (pmol/min/μg) [7]: Ac-LGK(TFAc)-AMC/1670 pmol/min/μg | Activity (pmol/min/μg) [8]: Ac-LGK(TFAc)-AMC/3330 pmol/min/μg | Activity (pmol/min/μg) [9]: Ac-LGK(TFAc)-AMC/9960 pmol/min/μg

Hist. H3 1-20, K9Ac: unlabeled peptide, histone H3 residues 1-20 acetylated on lysine-9
Km ([10]; Borra et al., 2004, read-out: Km (Lysyl substrate)): 24 µM | kcat ([10]; Borra et al., 2004): 0.24 s⁻¹
